Measurements published in patent US20230382920A1, “SHMT Inhibitors” (The Trustees of Princeton University, priority 2020, published 2023).

System: not listed separately
Assay: Mouse liver microsome assay (metabolic stability)
Type: in vitro ADME
Conditions: mouse liver microsomes, in vitro half-life
Protocol: Example 6. Mouse Liver Microsome Assay
Metabolic stability of several compounds in mouse liver microsomes was tested. Briefly, a master solution was prepared according to Table 31.
Two separate experiments were performed: an experiment with cofactors and an experiment without cofactors. In the experiment with cofactors 40 μL of 10 mM NADPH and 40 μL of 20 mM UDPGA were added to the incubations. The final concentrations of microsomes, NADPH and UDPGA were 0.5 mg/mL, 1 mM and 2 mM, respectively. In the experiment without cofactors 10 μL of 20 mg/mL liver microsomes and 80 μL of ultra-pure H2O were added to the incubations. The final concentration of microsomes was 0.5 mg/mL. The mixture was pre-warmed at 37° C. for 5 minutes.
The reaction was started with the addition of 4 μL of 200 μM control compound or test compound solutions. Verapamil was used as positive control in this study. The final concentration of test compound was 2 μM and the final concentration of control compound was 1 μM. The incubation solution was incubated in water bath at 37° C.
Aliquots of 50 μL were taken from the reaction solution at 0.5, 5, 15, 30, 45 and 60 minutes. The reaction was stopped by the addition of five volumes of cold acetonitrile with IS (100 nM alprazolam, 200 nM caffeine and 100 nM tolbutamide). Samples were centrifuged at 3,220 g for 40 minutes. Aliquot of 100 μL of the supernatant was mixed with 100 μL of ultra-pure H2O and then subject to LC-MS/MS analysis.
All calculations were carried out using Microsoft Excel. Peak areas were determined from extracted ion chromatograms. The slope value, k, was determined by linear regression of the natural logarithm of the remaining percentage of the parent drug versus incubation time curve. The in vitro half-life (in vitro t½) was determined from the slope value:
Conversion of the in vitro t1/2(min) into the in vitro intrinsic clearance (in vitro CLint, in μL/min/mg protein) was done using the following equation (mean of duplicate determinations): […]

half-life at 2 µM | Compound
< 5 min | Cc1n[nH]c2c1C(c1cc(C#C[C@H]3C[C@H](C(C)(C)O)C3)cc(CO)c1)(C(C)C)C(C#N)=C(N)O2 (some centres unmarked) [KDG-0258]
5 to 10 min | Cc1n[nH]c2c1C(c1cc(C#CC3(C)CN(C(=O)OC(C)(C)C)C3)cc(CO)c1)(C(C)C)C(C#N)=C(N)O2 (centres unmarked) [KDG-0300]
< 5 min | Cc1n[nH]c2c1C(c1cc(C#C[C@H]3C[C@H](C(=O)OC(C)(C)C)C3)cc(CO)c1)(C(C)C)C(C#N)=C(N)O2 (some centres unmarked) [KDG-0393]

Same assay, conditions: mouse liver microsomes, in vitro intrinsic clearance; read-out: Relative Clint

microsomal CLint at 2 µM | Compound
> 250 µL/min/mg | Cc1n[nH]c2c1C(c1cc(C#C[C@H]3C[C@H](C(C)(C)O)C3)cc(CO)c1)(C(C)C)C(C#N)=C(N)O2 (some centres unmarked) [KDG-0258]
> 250 µL/min/mg | Cc1n[nH]c2c1C(c1cc(C#CC3(C)CN(C(=O)OC(C)(C)C)C3)cc(CO)c1)(C(C)C)C(C#N)=C(N)O2 (centres unmarked) [KDG-0300]

System: HCT116
Assay: HCT116 growth inhibition assay
Type: cell-based
Conditions: without formate
Protocol: Example 5. HCT116 Growth Inhibition and Formate Rescue Assays
3,000 Cells were plated in each well of a 96-well plate with 80 μL of DMEM media supplemented with 10% dFBS, and incubated for 24 hours. Drugs with or without sodium formate (1 mM) were then added to each well to a final volume of 100 μL. Cell growth was measured as fluorescence intensity by resazurin after four days. In short, resazurin was added to each well to a final concentration of 10 μg·mL^−1. After incubation for one hour, fluorescence was measured by a Synergy HT plate reader (BioTek Instruments).

IC50 | Compound
B″ | Cc1n[nH]c2c1C(c1cc(C#C[C@H]3C[C@H](C(C)(C)O)C3)cc(CO)c1)(C(C)C)C(C#N)=C(N)O2 (some centres unmarked) [KDG-0258-100]
A″ | Cc1n[nH]c2c1C(c1cc(C#C[C@H]3C[C@H](C(C)(C)O)C3)cc(CO)c1)(C(C)C)C(C#N)=C(N)O2 (some centres unmarked) [KDG-0258]
D″ | Cc1n[nH]c2c1C(c1cc(C#C[C@H]3C[C@@H](CO)C3)cc(C(C)(C)O)c1)(C(C)C)C(C#N)=C(N)O2 (some centres unmarked) [KDG-0260-100]
C″ | Cc1n[nH]c2c1C(c1cc(C#C[C@H]3C[C@H](C(C)(C)O)C3)cc(C(C)(C)O)c1)(C(C)C)C(C#N)=C(N)O2 (some centres unmarked) [KDG-0261]
C″ | Cc1n[nH]c2c1C(c1cc(C#C[C@H]3C[C@@H](COC(N)=O)C3)cc(C(C)(C)O)c1)(C(C)C)C(C#N)=C(N)O2 (some centres unmarked) [KDG-0262-100]
B″ | Cc1n[nH]c2c1C(c1cc(C#C[C@H]3C[C@@H](C(=O)N(C)C)C3)cc(CO)c1)(C(C)C)C(C#N)=C(N)O2 (some centres unmarked) [KDG-0265-100]
B″ | CC(=O)OCC1CC(C#Cc2cc(CO)cc(C3(C(C)C)C(C#N)=C(N)Oc4[nH]nc(C)c43)c2)C1 (centres unmarked) [KDG-0266]
C″ | Cc1n[nH]c2c1C(c1cc(C#C[C@H]3C[C@@](C)(O)C3)cc(CO)c1)(C(C)C)C(C#N)=C(N)O2 (some centres unmarked) [KDG-0268]
B″ | CC(=O)O[C@]1(C)C[C@H](C#Cc2cc(CO)cc(C3(C(C)C)C(C#N)=C(N)Oc4[nH]nc(C)c43)c2)C1 (some centres unmarked) [KDG-0269]
B″ | Cc1n[nH]c2c1C(c1cc(C#CC3CCC(=O)CC3)cc(CO)c1)(C(C)C)C(C#N)=C(N)O2 (centres unmarked) [KDG-0270-100]
A″ | Cc1n[nH]c2c1C(c1cc(C#CC3CN(C(=O)OC(C)(C)C)C3)cc(CO)c1)(C(C)C)C(C#N)=C(N)O2 (centres unmarked) [KDG-0271-0-pk1]
D″ | Cc1n[nH]c2c1C(c1cc(C#CC3CN(C(=O)OC(C)(C)C)C3)cc(CO)c1)(C(C)C)C(C#N)=C(N)O2 (centres unmarked) [KDG-0271-0-pk2]
D″ | Cc1n[nH]c2c1C(c1cc(C#CC3CNC3)cc(CO)c1)(C(C)C)C(C#N)=C(N)O2 (centres unmarked) [KDG-0271-200]
A″ | CC(=O)O[C@]1(C)CC[C@H](C#Cc2cc(CO)cc(C3(C(C)C)C(C#N)=C(N)Oc4[nH]nc(C)c43)c2)CC1 (some centres unmarked) [KDG-0272]
B″ | COC(=O)N1CC(C#Cc2cc(CO)cc(C3(C(C)C)C(C#N)=C(N)Oc4[nH]nc(C)c43)c2)C1 (centres unmarked) [KDG-0281]
B″ | CC(=O)OCc1cc(C#CC2CN(C(=O)OC(C)(C)C)C2)cc(C2(C(C)C)C(C#N)=C(N)Oc3[nH]nc(C)c32)c1 (centres unmarked) [KDG-0284]
B″ | Cc1n[nH]c2c1C(c1cc(C#CC3CCN(C(=O)OC(C)(C)C)C3)cc(CO)c1)(C(C)C)C(C#N)=C(N)O2 (centres unmarked) [KDG-0287]
C″ | Cc1n[nH]c2c1C(c1cc(C#CC3CCCN(C(=O)OC(C)(C)C)C3)cc(CO)c1)(C(C)C)C(C#N)=C(N)O2 (centres unmarked) [KDG-0288]
A″ | Cc1n[nH]c2c1C(c1cc(C#CC3CN(C(=O)OC(C)(C)C)C3)cc(COC(=O)C(C)C)c1)(C(C)C)C(C#N)=C(N)O2 (centres unmarked) [KDG-0293]
B″ | Cc1n[nH]c2c1C(c1cc(C#CC3CN(C(=O)OC(C)(O)O)C3)cc(COC(=O)C(N)C(C)O)c1)(C(C)C)C(C#N)=C(N)O2 (centres unmarked) [KDG-0294]
B″ | Cc1n[nH]c2c1C(c1cc(C#CC3(C)CCN(C(=O)OC(C)(C)C)C3)cc(CO)c1)(C(C)C)C(C#N)=C(N)O2 (centres unmarked) [KDG-0304]
B″ | COC(=O)N1CCC(C)(C#Cc2cc(CO)cc(C3(C(C)C)C(C#N)=C(N)Oc4[nH]nc(C)c43)c2)CC1 (centres unmarked) [KDG-0308]
B″ | Cc1n[nH]c2c1C(c1cc(C#C[C@H]3C[C@@H](NC(=O)OC(C)(C)C)C3)cc(CF)c1)(C(C)C)C(C#N)=C(N)O2 (some centres unmarked) [KDG-0383]
B″ | Cc1n[nH]c2c1C(c1cc(C#C[C@H]3C[C@H](NC(=O)OC(C)(C)C)C3)cc(CO)c1)(C(C)C)C(C#N)=C(N)O2 (some centres unmarked) [KDG-0385, tert-butyl N-[(1r,3r)-3-[2-(3-[6-amino-5-cyano-4-isopropyl-3-methyl-1H-pyrano[2,3-c]pyrazol-4-yl]-5-(hydroxymethyl)phenyl)ethynyl]cyclobutyl]carbamate]

IC50 | Compound
B″ | Cc1n[nH]c2c1C(c1cc(C#C[C@H]3C[C@](C)(NC(=O)OC(C)(C)C)C3)cc(CO)c1)(C(C)C)C(C#N)=C(N)O2 (some centres unmarked) [KDG-0387]
B″ | Cc1n[nH]c2c1C(c1cc(C#C[C@H]3C[C@H](NC(=O)OC(C)(C)C)C3)cc(CF)c1)(C(C)C)C(C#N)=C(N)O2 (some centres unmarked) [KDG-0390]
B″ | Cc1n[nH]c2c1C(c1cc(C#C[C@H]3C[C@@H](CNC(=O)OC(C)(C)C)C3)cc(CO)c1)(C(C)C)C(C#N)=C(N)O2 (some centres unmarked) [KDG-0395-100]
B″ | Cc1n[nH]c2c1C(c1cc(C#C[C@H]3C[C@H](CNC(=O)OC(C)(C)C)C3)cc(CO)c1)(C(C)C)C(C#N)=C(N)O2 (some centres unmarked) [KDG-0395]
B″ | CCC(C)(C)OC(=O)N1CC(C#Cc2cc(CO)cc(C3(C(C)C)C(C#N)=C(N)Oc4[nH]nc(C)c43)c2)C1 (centres unmarked) [KDG-0411]
A″ | Cc1n[nH]c2c1C(c1cc(C#CC3CN(C(=O)OC(C)C)C3)cc(CO)c1)(C(C)C)C(C#N)=C(N)O2 (centres unmarked) [KDG-0416]
B″ | COCC(C)(C)OC(=O)N1CC(C#Cc2cc(CO)cc(C3(C(C)C)C(C#N)=C(N)Oc4[nH]nc(C)c43)c2)C1 (centres unmarked) [KDG-0418]
C″ | Cc1nnc(N[C@H]2CC[C@@H](C#Cc3cc(CO)cc(C4(C(C)C)C(C#N)=C(N)Oc5[nH]nc(C)c54)c3)CC2)o1 (some centres unmarked) [KDG-0516]
C″ | Cc1nnc(N[C@H]2CC[C@H](C#Cc3cc(CO)cc(C4(C(C)C)C(C#N)=C(N)Oc5[nH]nc(C)c54)c3)CC2)o1 (some centres unmarked) [KDG-0518]
A″ | Cc1n[nH]c2c1C(c1cc(C#C[C@H]3C[C@@H](NC(=O)OC(C)C)C3)cc(CO)c1)(C(C)C)C(C#N)=C(N)O2 (some centres unmarked) [KDG-0520]
A″ | Cc1n[nH]c2c1C(c1cc(C#C[C@H]3C[C@@H](NC(=O)OCc4ccccc4)C3)cc(CO)c1)(C(C)C)C(C#N)=C(N)O2 (some centres unmarked) [KDG-0521]
B″ | COC(=O)N[C@H]1C[C@H](C#Cc2cc(CO)cc(C3(C(C)C)C(C#N)=C(N)Oc4[nH]nc(C)c43)c2)C1 (some centres unmarked) [KDG-0522-100]
B″ | COC(=O)N[C@H]1C[C@@H](C#Cc2cc(CO)cc(C3(C(C)C)C(C#N)=C(N)Oc4[nH]nc(C)c43)c2)C1 (some centres unmarked) [KDG-0522]
B″ | Cc1n[nH]c2c1C(c1cc(C#C[C@H]3C[C@@H](NC(=O)NC(C)(C)C)C3)cc(CO)c1)(C(C)C)C(C#N)=C(N)O2 (some centres unmarked) [KDG-0523]
B″ | Cc1n[nH]c2c1C(c1cc(C#C[C@H]3C[C@@H](NC(=O)OCC(C)(C)C)C3)cc(CO)c1)(C(C)C)C(C#N)=C(N)O2 (some centres unmarked) [KDG-0524]
B″ | Cc1n[nH]c2c1C(c1cc(C#C[C@H]3C[C@@H](NC(=O)C(C)(C)C)C3)cc(CO)c1)(C(C)C)C(C#N)=C(N)O2 (some centres unmarked) [KDG-0526]
B″ | Cc1n[nH]c2c1C(c1cc(C#C[C@H]3C[C@@H](NC(=O)CC(C)(C)C)C3)cc(CO)c1)(C(C)C)C(C#N)=C(N)O2 (some centres unmarked) [KDG-0527]
D″ | Cc1n[nH]c2c1C(c1cc(C#C[C@H]3C[C@@H](NCC(=O)N(C)C)C3)cc(CO)c1)(C(C)C)C(C#N)=C(N)O2 (some centres unmarked) [KDG-0530]
D″ | Cc1n[nH]c2c1C(c1cc(C#CC3CN(C(=O)CN(C)C)C3)cc(CO)c1)(C(C)C)C(C#N)=C(N)O2 (centres unmarked) [KDG-0547]
C″ | Cc1n[nH]c2c1C(c1cc(C#C[C@H]3C[C@@H](NC(=O)CN(C)C)C3)cc(CO)c1)(C(C)C)C(C#N)=C(N)O2 (some centres unmarked) [KDG-0554]
C″ | Cc1n[nH]c2c1C(c1cc(C#C[C@H]3C[C@H](NC(=O)CN(C)C)C3)cc(CO)c1)(C(C)C)C(C#N)=C(N)O2 (some centres unmarked) [KDG-0555]
C″ | Cc1n[nH]c2c1C(c1cc(C#CC34CC(C(=O)N(C)C)(C3)C4)cc(CO)c1)(C(C)C)C(C#N)=C(N)O2 (centres unmarked) [KDG-0558]
B″ | Cc1nnc(C23CC(C#Cc4cc(CO)cc(C5(C(C)C)C(C#N)=C(N)Oc6[nH]nc(C)c65)c4)(C2)C3)o1 (centres unmarked) [KDG-0573]
B″ | Cc1n[nH]c2c1C(c1cc(C#C[C@H]3C[C@@H](NC(=O)OC(C)(C)C)C3)cc(C(F)(F)F)c1)(C(C)C)C(C#N)=C(N)O2 (some centres unmarked) [KDG-0574]
